Data published in patent US6967211B2, “Remedial agent for chronic articular rheumatism” (Nippon Shinyaku Co. Ltd., priority 2002, dated 2005).
Where two headings read alike, the source gives them in different places. Marks after values point to notes of the source that are not given here.

Key:
[1] = test system: type II collagen-induced arthritis; conditions: for Inhibition ratio (%): arthritis score 35 days after primary sensitization
Experimental: 8-week-old DBA/1J male mice (7 to 10 mice) were used. 0.1 ml of an emulsion prepared by mixing a 0.1 M solution of acetic acid in physiological saline (2 mg/ml) of type II collagen derived from bovine joint cartilage and complete Freund's adjuvant at a mixing ratio of 1:1 was injected intradermally at the base of the tail in mice (primary sensitization). 21 days later, 0.1 ml of the emulsion prepared in the same manner as in case of primary sensitization was injected subcutaneously again at the back in mice (secondary sensitization). The test compound was suspended in an aqueous 0.5% methyl cellulose solution and administered orally to the mice once a day, which started from the primary or secondary sensitization. After 35 days from the primary sensitization, symptoms of arthritis was visually observed and the results were used a score of arthritis.

[2] = test system: CDF1 male mice; conditions: single oral administration
Experimental: 7-week-old CDF1 male mice (6 mice) were used. The compound 1 was suspended in 0.5% methylcellulose and the resulting suspension was orally administered once by oral probe. The mortality rate was investigated after 2 weeks and the LD50 value was calculated by the probit method.

COc1ccc(S(=O)(=O)N(C(C)=O)c2ccccc2/C=C/c2cc[n+]([O-])cc2)cc1 [Compound 1]
Inhibition ratio (%) ([1]; 1 mg/kg orally once a day, started from the primary sensitization): −8.5%
inhibitory effect on type II collagen-induced arthritis (in words) ([1]; 5 mg/kg from the primary sensitization, or 5 and 10 mg/kg from the secondary sensitization): significant inhibitory effect
Inhibition ratio (%) ([1]; 5 mg/kg orally once a day, started from the primary sensitization): 69.5* %
Inhibition ratio (%) ([1]; 5 mg/kg orally once a day, started from the secondary sensitization): 69.6* %
Inhibition ratio (%) ([1]; 10 mg/kg orally once a day, started from the secondary sensitization): 100.0** %
toxicity (in words) ([2]; mice): very low toxicity
LD50 value ([2]; mortality after 2 weeks, probit method): 620.5 mg/kg
